#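 GI50: concentration for 50% inhibition of growth. Definition used: TGI = concentration required for complete inhibition of growth.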
# Assays:
# Assay in all cases: NCI anticancer screen, dose series, 384-well format
# [1] = system: 786-0 renal
# [2] = system: A498 renal
# [3] = system: A549 NSCLC
# [4] = system: ACHN renal
# [5] = system: BT-549 breast
# [6] = system: CAKI-1 renal
# [7] = system: CCRF-CEM leukemia
# [8] = system: COLO 205 colon
# [9] = system: DU-145 prostate
# [10] = system: EKVX NSCLC
# [11] = system: HCC-2998 colon
# [12] = system: HCT-116 colon
# [13] = system: HCT-15 colon
# [14] = system: HL-60(TB) leukemia
# [15] = system: HOP-62 NSCLC
# [16] = system: HOP-92 NSCLC
# [17] = system: HS 578T breast
# [18] = system: HT29 colon
# [19] = system: IGROV1 ovarian
# [20] = system: K-562 leukemia
# [21] = system: KM12 colon
# [22] = system: LOX IMVI melanoma
# [23] = system: M14 melanoma
# [24] = system: MALME-3M melanoma
# [25] = system: MCF7 breast
# [26] = system: MDA-MB-435 melanoma
# [27] = system: MDA-MB-468 breast
# [28] = system: MOLT-4 leukemia
# [29] = system: NCI-H226 lung
# [30] = system: NCI-H23 lung
# [31] = system: NCI-H322M lung
# [32] = system: NCI-H460 NSCLC
# [33] = system: NCI-H522 lung
# [34] = system: NCI/ADR-RES ovarian
# [35] = system: OVCAR-3 ovarian
# [36] = system: OVCAR-4 ovarian
# [37] = system: OVCAR-8 ovarian
# [38] = system: PC-3 prostate
# [39] = system: RPMI-8226 leukemia
# [40] = system: RXF 393 renal
# [41] = system: SF-268 CNS
# [42] = system: SF-295 CNS
# [43] = system: SF-539 CNS
# [44] = system: SK-MEL-2 melanoma
# [45] = system: SK-MEL-28 melanoma
# [46] = system: SK-MEL-5 melanoma
# [47] = system: SK-OV-3 ovarian
# [48] = system: SN12C renal
# [49] = system: SNB-19 CNS
# [50] = system: SNB-75 CNS
# [51] = system: SW-620 colon
# [52] = system: TK-10 renal
# [53] = system: U251 glioblastoma
# [54] = system: UACC-257 melanoma
# [55] = system: UACC-62 melanoma
smiles,measurement,setting,value
N#Cc1ccc(OC(=O)Nc2cc(Cl)cc(Cl)c2)cc1,GI50,[1],7.03 µM
same,TGI,[1],20.1 µM
same,GI50,[2],3.47 µM
same,TGI,[2],9.21 µM
same,GI50,[3],3.78 µM
same,TGI,[3],12.7 µM
same,GI50,[4],3.51 µM
same,TGI,[4],10 µM
same,GI50,[5],13.4 µM
same,TGI,[5],30.8 µM
same,GI50,[6],3.69 µM
same,TGI,[6],10.2 µM
same,GI50,[7],2.19 µM
same,TGI,[7],5.31 µM
same,GI50,[8],6.65 µM
same,TGI,[8],23.9 µM
same,GI50,[9],4.29 µM
same,TGI,[9],55.5 µM
same,GI50,[10],3.92 µM
same,TGI,[10],12.6 µM
same,GI50,[11],13.2 µM
same,TGI,[11],30.8 µM
same,GI50,[12],3.12 µM
same,TGI,[12],7.62 µM
same,GI50,[13],4.14 µM
same,TGI,[13],12.1 µM
same,GI50,[14],1.77 µM
same,TGI,[14],3.16 µM
same,GI50,[15],3.03 µM
same,TGI,[15],6.05 µM
same,GI50,[16],3.23 µM
same,TGI,[16],7.12 µM
same,GI50,[17],7.57 µM
same,TGI,[17],20.5 µM
same,GI50,[18],4.43 µM
same,TGI,[18],17.3 µM
same,GI50,[19],4.43 µM
same,TGI,[19],15.3 µM
same,GI50,[20],7.71 µM
same,TGI,[20],93.1 µM
same,GI50,[21],3.74 µM
same,TGI,[21],11 µM
same,GI50,[22],3.81 µM
same,TGI,[22],12.7 µM
same,GI50,[23],5.38 µM
same,TGI,[23],15 µM
same,GI50,[24],5.9 µM
same,TGI,[24],16.4 µM
same,GI50,[25],3.75 µM
same,TGI,[25],16 µM
same,GI50,[26],8.94 µM
same,TGI,[26],23.6 µM
same,GI50,[27],9.04 µM
same,TGI,[27],20.9 µM
same,GI50,[28],2 µM
same,TGI,[28],3.7 µM
same,GI50,[29],3.27 µM
same,TGI,[29],8.97 µM
same,GI50,[30],2.23 µM
same,TGI,[30],4.16 µM
same,GI50,[31],11.6 µM
same,TGI,[31],29.4 µM
same,GI50,[32],2.84 µM
same,TGI,[32],6.62 µM
same,GI50,[33],3.23 µM
same,TGI,[33],7.63 µM
same,GI50,[34],3.79 µM
same,TGI,[34],9.65 µM
same,GI50,[35],2.44 µM
same,TGI,[35],5.16 µM
same,GI50,[36],8.27 µM
same,TGI,[36],62.2 µM
same,GI50,[37],4.1 µM
same,TGI,[37],12.6 µM
same,GI50,[38],3.27 µM
same,TGI,[38],7.27 µM
same,GI50,[39],2.04 µM
same,TGI,[39],3.48 µM
same,GI50,[40],6.26 µM
same,TGI,[40],17.7 µM
same,GI50,[41],5.61 µM
same,TGI,[41],21.6 µM
same,GI50,[42],3.07 µM
same,TGI,[42],8.78 µM
same,GI50,[43],4.28 µM
same,TGI,[43],13.4 µM
same,GI50,[44],2.84 µM
same,TGI,[44],5.82 µM
same,GI50,[45],13.1 µM
same,TGI,[45],30.6 µM
same,GI50,[46],4.36 µM
same,TGI,[46],13.2 µM
same,GI50,[47],6 µM
same,TGI,[47],19.9 µM
same,GI50,[48],4 µM
same,TGI,[48],13.2 µM
same,GI50,[49],4.74 µM
same,TGI,[49],19.1 µM
same,GI50,[50],3.32 µM
same,TGI,[50],9.94 µM
same,GI50,[51],4.54 µM
same,TGI,[51],14.6 µM
same,GI50,[52],4.01 µM
same,TGI,[52],13.1 µM
same,GI50,[53],3.43 µM
same,TGI,[53],7.96 µM
same,GI50,[54],6.12 µM
same,TGI,[54],15.9 µM
same,GI50,[55],7.22 µM
same,TGI,[55],19.3 µM
